The values that follow come from patent US11939340B2, “CDK inhibitors and their use as pharmaceuticals” (Prelude Therapeutics Incorporated, priority 2022, dated 2024).

Structures are written as SMILES.

Assay [1] deals with CDK2/Cyclin E2 (Homo sapiens, UniProt P24941). Put plainly: CDK2/CyclinE2 Enzymatic Activity Assay (TR-FRET). In kind it is biochemical. The settings on record: CDK2/CyclinE2 1 nM, ATP 1 mM, read-out: CDK2_El IC50. As for the experimental part: CDK2/CyclinE2 Enzymatic Activity Assay
The inhibitory activity of compounds was evaluated in vitro using TR-FRET assay with white 384-well low volume microplate (Greiner Bio-One). CDK2/Cyclin E2 catalyzed phosphorylation of peptide in the presence and absence of compounds was measured and used in IC50 determination. Recombinant protein complex CDK2/Cyclin E2, expressed from insect cell, was purchased from ProQinase. Testing compounds were dissolved in DMSO at 1 mM and tested in 9-dose IC50 mode. The reaction mixture was prepared by mixing CDK2/CyclinE2 (1 nM final), ULight-4E-BP1 (50 nM final, Perkinelmer, TRF0128-D), and ATP (1 mM final) in assay buffer (20 mM of HEPES pH 7.4, 1 mM of EGTA, 0.05% BSA, 0.005% Tween 20, and 1 mM TCEP). The compound of interest in DMSO was added to each well in 3-fold serial dilution by dispenser (TECAN D300E) to make a 9.9 μL of reaction mixture. After 20 minutes preincubation at room temperature, 0.1 μL MgCl2 (10 mM final) was added to initiate the reaction. Following a 45 minute incubation at 37° C., the reaction was stopped by addition of 2 μL of quenching buffer consisting of Lance detection buffer (Perkinelmer CR97-100C), LANCE Ultra Europium-anti-P-4E-BP1 (Perkinelmer, TRF0216-D), EDTA, and incubate at room temperature for additional 60 minutes in the dark. The reaction signal was measured by Envision multimode plate reader (PerkinElmer, 2102-0010). IC50 values were determined by fitting the data to the standard 4 parameters with Hill Slope using GraphPad Prism software.
Background: TR-FRET usually uses a lanthanide donor and a delayed reading to cut background.

Assay [2] has as its system pRB in OVCAR3 cells. Put plainly: pRB ICW Assay in OVCAR3 Cells. It counts as cell-based. Conditions: Homo sapiens, OVCAR-3, incubated with compound for 2 hours, read-out: OVCAR3 p-RB ICW IC50. As for the experimental part:
pRB ICW Assay in OVCAR3 Cells
OVCAR3 cells were maintained in RPMI (Corning, Catalog #: 10-040-CV) supplemented with 10% v/v FBS (Gibco, Catalog #: 26140-079), 1% v/v Penicillin Streptomycin (Gibco, Catalog #15140-122.) OVCAR3 cells grown at log phase were trypsinized, counted, and resuspended in fresh medium to reach a final density of 6.7e4 cells/mL and 75 μL of culture were dispensed into a 384-well plate (Falcon, cat #353962) using a Multidrop Combi dispenser (Thermo Scientific). The next day, compounds were dispensed as a 9-point, ½ log serial dilution using a Tecan digital dispenser (D300e), and cells were incubated with compound for 2 hours in a humidified incubator at 37° C. A reference compound at a final concentration of 10 μM was used as a control for maximum inhibition. Each compound was tested in duplicates for each experiment. At the end of the incubation, 25 μL of 16% paraformaldehyde (Electron Microscopy, cat #15710) was slowly added to each well and the plate was incubated at room temperature (RT) for 30 minutes to fix cells. Cells were then permeabilized by incubating with 50 μL/well of wash buffer (lx PBS with 0.1% Triton X-100) 5×5 minutes, followed by 1 hour blocking with 30 μL/well of Odyssey blocking buffer (Li—COR, cat #927-40000), at RT. Anti-phosphor RB antibody (Cell signaling 8516S) was diluted 1:1000 in Odyssey blocking buffer and 20 μL was added to all wells and incubated overnight in 4° C. with gently rocking. The next day, cells were washed 5×5 min with 50 μL/well of wash buffer, followed with 1 hour incubation with secondary antibody and DRAQ5 diluted in Odyssey blocking buffer (1:500 dilution for secondary antibody and 1:2000 dilution for DRAQ5), 5×5 min washes, and one last wash with water. Plates were dried in 37° C. oven for 5 minutes and scanned using Li—COR Odyssey CLx imaging system to acquire intensities at 700 and 800 nm channels.

Assay [3] deals with T1, CDK4/Cyclin D1 (Homo sapiens, UniProt P11802).
T1 construct: purchased ProQinase; host or cells: insect cell
T1 sequence (P11802 whole entry): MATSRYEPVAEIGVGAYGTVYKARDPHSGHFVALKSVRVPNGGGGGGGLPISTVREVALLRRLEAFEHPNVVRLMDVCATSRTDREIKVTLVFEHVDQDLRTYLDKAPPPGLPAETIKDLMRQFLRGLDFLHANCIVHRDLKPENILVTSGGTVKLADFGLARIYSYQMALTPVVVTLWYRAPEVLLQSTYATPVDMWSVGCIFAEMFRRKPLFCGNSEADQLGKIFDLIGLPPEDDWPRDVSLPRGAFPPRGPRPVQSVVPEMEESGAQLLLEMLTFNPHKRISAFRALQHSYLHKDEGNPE
T1 sequence (P24385 whole entry partner): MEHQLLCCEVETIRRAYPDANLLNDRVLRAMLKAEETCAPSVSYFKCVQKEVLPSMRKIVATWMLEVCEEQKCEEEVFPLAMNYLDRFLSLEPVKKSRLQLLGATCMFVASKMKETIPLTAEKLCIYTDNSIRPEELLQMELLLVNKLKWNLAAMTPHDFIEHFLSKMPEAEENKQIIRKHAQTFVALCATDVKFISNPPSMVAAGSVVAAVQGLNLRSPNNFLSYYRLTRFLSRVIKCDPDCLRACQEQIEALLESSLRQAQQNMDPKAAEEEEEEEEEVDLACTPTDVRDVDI
Kind of assay: CDK4/CyclinD1 Enzymatic Activity Assay (TR-FRET). The settings on record: CDK4/CyclinD1 1 nM, ATP 2 mM, read-out: CDK4_D1 IC50. In kind it is biochemical. As for the experimental part:
CDK4/CyclinD1 Enzymatic Activity Assay
The inhibitory activity of compounds was evaluated in vitro using TR-FRET assay with white 384-well low volume microplate (Greiner Bio-One). CDK4/Cyclin D1 catalyzed phosphorylation of peptide in the presence and absence of compounds was measured and used in IC50 determination. Recombinant protein complex CDK4/Cyclin D1, expressed from insect cell, was purchased from ProQinase. Testing compounds were dissolved in DMSO at 1 mM and tested in 9-dose IC50 mode. The reaction mixture was prepared by mixing CDK4/CyclinD1 (1 nM final), ULight-4E-BP1 (100 nM final, Perkinelmer, TRF0128-D), and ATP (2 mM final) in assay buffer (20 mM of HEPES pH 7.4, 1 mM of EGTA, 0.05% BSA, 0.005% Tween 20, and 1 mM TCEP). The compound of interest in DMSO was added to each well in 3-fold serial dilution by the dispenser (TECAN D300E) to make a 9.9 μL of reaction mixture. After 20 minutes preincubation at room temperature, 0.1 μL MgCl2 (10 mM final) was added to initiate the reaction. Following a 45 minute incubation at 37° C., the reaction was stopped by addition of 2 μL of quenching buffer consisting of Lance detection buffer (Perkinelmer CR97-100C), LANCE Ultra Europium-anti-P-4E-BP1 (Perkinelmer, TRF0216-D), EDTA, and incubated at room temperature for additional 60 minutes in dark. The reaction signal was measured by Envision multimode plate reader (PerkinElmer, 2102-0010). IC50 values were determined by fitting the data to the standard 4 parameters with Hill Slope using GraphPad Prism software.

A word on the IC50: it is the concentration that gives 50% inhibition.

In the case of `CCC12CC(NC)CN1C(=O)c1cc(-c3nc(NC4CCN(S(=O)(=O)c5cnn(C)c5)CC4)ncc3C(F)(F)F)sc12` (stereo not shown) [Example 49, 8a-Ethyl-2-(2-((1-((1-methyl-1H-pyrazol-4-yl)sulfonyl)piperidin-4-yl)amino)-5-(trifluoromethyl)pyrimidin-4-yl)-7-(methylamino)-6,7,8,8a-tetrahydro-4H-thieno[2,3-a]pyrrolizin-4-one], the IC50 in assay [1], in assay [2] and in assay [3] was at most 100 nM each time.

Regarding `CS(=O)(=O)N1CCC(Nc2ncc(C(F)(F)F)c(-c3cc4c(s3)C3(C5CCC5)CCCN3C4=O)n2)CC1` (stereo not shown) [Example 23, 8a-Cyclobutyl-2-(2-((1-(methylsulfonyl)piperidin-4-yl)amino)-5-(trifluoromethyl)pyrimidin-4-yl)-6,7,8,8a-tetrahydro-4H-thieno[2,3-a]pyrrolizin-4-one], the IC50 in assay [1] is at most 100 nM; in assay [2], 100 to 500 nM; in assay [3], at most 100 nM.

Regarding `CS(=O)(=O)N1CCC(Nc2ncc(C(F)(F)F)c(-c3cc4c(s3)C3(CCF)CCCN3C4=O)n2)CC1` (stereo not shown) [Example 19, 8a-(2-Fluoroethyl)-2-(2-((1-(methylsulfonyl)piperidin-4-yl)amino)-5-(trifluoromethyl)pyrimidin-4-yl)-6,7,8,8a-tetrahydro-4H-thieno[2,3-a]pyrrolizin-4-one], the IC50 in assay [1], in assay [2] and in assay [3] was at most 100 nM in each case.

As for `CCNC1CN2C(=O)c3cc(-c4nc(NC5CCN(S(C)(=O)=O)CC5)ncc4C(F)(F)F)sc3C2(CC)C1` (stereo not shown) [Example 41, 8a-Ethyl-7-(ethylamino)-2-(2-((1-(methylsulfonyl)piperidin-4-yl)amino)-5-(trifluoromethyl)pyrimidin-4-yl)-6,7,8,8a-tetrahydro-4H-thieno[2,3-a]pyrrolizin-4-one], the IC50 in assay [1], in assay [2] and in assay [3] was at most 100 nM throughout.

For `CS(=O)(=O)N1CCC(Nc2ncc(C(F)(F)F)c(-c3cc4c(s3)C3(CO)CCCN3C4=O)n2)CC1` (stereo not shown) [Example 17, 8a-(Hydroxymethyl)-2-(2-((1-(methylsulfonyl)piperidin-4-yl)amino)-5-(trifluoromethyl)pyrimidin-4-yl)-6,7,8,8a-tetrahydro-4H-thieno[2,3-a]pyrrolizin-4-one], the IC50 is at most 100 nM in assay [1], 100 to 500 nM in assay [2] and at most 100 nM in assay [3].

`CS(=O)(=O)N1CCC(Nc2ncc(C(F)(F)F)c(-c3cc4c(s3)C3(C5CC(F)(F)C5)CCCN3C4=O)n2)CC1` (stereo not shown) [Example 24, 8a-(3,3-Difluorocyclobutyl)-2-(2-((1-(methylsulfonyl)piperidin-4-yl)amino)-5-(trifluoromethyl)pyrimidin-4-yl)-6,7,8,8a-tetrahydro-4H-thieno[2,3-a]pyrrolizin-4-one]: the 50% inhibitory concentration (IC50) in assay [1] was at most 100 nM; in assay [2] it was 100 to 500 nM; in assay [3], at most 100 nM.

`CCC12CC(N)CN1C(=O)c1cc(-c3nc(NC4CCN(S(C)(=O)=O)CC4)ncc3C(F)(F)F)sc12` (stereo not shown) [Example 40, 7-Amino-8a-ethyl-2-(2-((1-(methylsulfonyl)piperidin-4-yl)amino)-5-(trifluoromethyl)pyrimidin-4-yl)-6,7,8,8a-tetrahydro-4H-thieno[2,3-a]pyrrolizin-4-one]: the 50% inhibitory concentration (IC50) in assay [1], in assay [2] and in assay [3] was at most 100 nM each time.

As for `CC(C)C12CC(O)CN1C(=O)c1cc(-c3nc(NC4CCN(S(C)(=O)=O)CC4)ncc3C(F)(F)F)sc12` (stereo not shown) [Example 29, 7-Hydroxy-8a-isopropyl-2-(2-((1-(methylsulfonyl)piperidin-4-yl)amino)-5-(trifluoromethyl)pyrimidin-4-yl)-6,7,8,8a-tetrahydro-4H-thieno[2,3-a]pyrrolizin-4-one], the half-inhibitory concentration (IC50) in assay [1], in assay [2] and in assay [3] was at most 100 nM in each case.

`CCC12CC(N(C)C)CN1C(=O)c1cc(-c3nc(NC4CCN(S(C)(=O)=O)CC4)ncc3C(F)(F)F)sc12` (stereo not shown) [Example 39, 7-(Dimethylamino)-8a-ethyl-2-(2-((1-(methylsulfonyl)piperidin-4-yl)amino)-5-(trifluoromethyl)pyrimidin-4-yl)-6,7,8,8a-tetrahydro-4H-thieno[2,3-a]pyrrolizin-4-one]: the IC50 in assay [1], in assay [2] and in assay [3] was at most 100 nM in each case.

Regarding `CS(=O)(=O)N1CCC(Nc2ncc(C(F)(F)F)c(-c3cc4c(s3)C3(CCO)CCCCN3C4=O)n2)CC1` (stereo not shown) [Example 5, 9a-(2-Hydroxyethyl)-2-(2-((1-(methylsulfonyl)piperidin-4-yl)amino)-5-(trifluoromethyl)pyrimidin-4-yl)-7,8,9,9a-tetrahydrothieno[2,3-a]indolizin-4(6H)-one], the IC50 in assay [1] and in assay [3] was at most 100 nM throughout.

Turning to `CC(C)C12CCCCN1C(=O)c1cc(-c3nc(NC4CCN(S(C)(=O)=O)CC4)ncc3F)sc12` (stereo not shown) [Example 9, 2-(5-Fluoro-2-((1-(methylsulfonyl)piperidin-4-yl)amino)pyrimidin-4-yl)-9a-isopropyl-7,8,9,9a-tetrahydrothieno[2,3-a]indolizin-4(6H)-one], the IC50 in assay [1] was at most 100 nM.

For the compound `CS(=O)(=O)N1CCC(Nc2ncc(C(F)(F)F)c(-c3cc4c(s3)C3(CCCO)CCCCN3C4=O)n2)CC1` (stereo not shown) [Example 4, 9a-(3-Hydroxypropyl)-2-(2-((1-(methylsulfonyl)piperidin-4-yl)amino)-5-(trifluoromethyl)pyrimidin-4-yl)-7,8,9,9a-tetrahydrothieno[2,3-a]indolizin-4(6H)-one], the IC50 in assay [1] and in assay [3] was at most 100 nM throughout.

In the case of `CCC12CCCN1C(=O)c1cc(-c3ccnc(NC4CCN(S(C)(=O)=O)CC4)n3)sc12` (stereo not shown) [Example 28, 8a-Ethyl-2-(2-((1-(methylsulfonyl)piperidin-4-yl)amino)pyrimidin-4-yl)-6,7,8,8a-tetrahydro-4H-thieno[2,3-a]pyrrolizin-4-one], the IC50 in assay [1] and in assay [3] was 100 to 500 nM throughout.
